Assay [1] concerns HL60/ADR cells. Nature of the assay: Inhibition of MRP-mediated MDR: doxorubicin with or without compound, XTT viability. The assay is classed as cell-based. The conditions noted are these: Homo sapiens, 72 h, doxorubicin alone, no MDR inhibitor, control run of the compound in the same table row, 3 days, read-out: IC50 Dox alone. As to the method: We plated HL60/ADR cells in 96 well microtiter plates (4 x 10^4 cells/well). […] After culturing the cells for 3 days, their viability was quantitated using the XTT dye method to assess mitochondrial function. […] IC50 values are expressed in nM. In all assays the intrinsic antiproliferative or cytotoxic activity of the MDR inhibitors was also determined for HL60/ADR cells.

For assay [2], the system named is L1210VMDRC.06. Nature of the assay: MDR sensitization assay: doxorubicin antiproliferative activity with or without MDR inhibitor (MTT/XTT viability). In kind it is cell-based, mouse. The conditions noted are these: IC50 Dox / IC50 Dox + Inhibitor. As to the method:
To assay the ability of the compounds according to this invention to increase the antiproliferative activity of a drug, cell lines which are known to be resistant to a particular drug may be used. These cell lines include, but are not limited to, the L1210, P388D, CHO and MCF7 cell lines. Alternatively, resistant cell lines may be developed. The cell line is exposed to the drug to which it is resistant, or to the test compound; cell viability is then measured and compared to the viability of cells which are exposed to the drug in the presence of the test compound. […]
Multi-drug resistance assays were conducted by plating cells (2 x 10^3, 1 x 10^4, or 5 x 10^4 cells/well) in 96 well microtiter plates and exposing them to a concentration range of doxorubicin ([…]) as described in Ford et al., Cancer Res., Vol. 50, 1748-1756. […] After culture for 3 days, the viability of cells was quantitated using MTT (Mossman) or XTT dyes to assess mitochondrial function. […]
Results were determined by comparison of the IC50 for doxorubicin alone to the IC50 for doxorubicin+ MDR inhibitor. An MDR ratio was calculated (IC50 Dox/ IC50 Dox + Inhibitor) and the integer value used for comparison of compound potencies.

By IC50 is commonly meant the midpoint of a concentration-inhibition curve. As to `COc1cccc2c1C(=O)c1c(O)c3c(c(O)c1C2=O)C[C@@](O)(C(=O)CO)C[C@@H]3O[C@H]1C[C@H](N)[C@H](O)[C@H](C)O1` [Dox, doxorubicin], in assay [1], the IC50 turned out to be 5 µM.
Consider “(S)-N-Benzyl-2-(methyl-(2-oxo-2-(3,4,5-trimethoxyphenyl)acetyl)amino)-3-phenyl-N-(3-(pyridin-4-yl)-1-(2-(pyridin-4-yl)-propyl)butyl)propionamide [Compound 12]”, for which the “MDR Ratio 0.5 µM” value in assay [2] (0.5 µM compound) is 3.2. Also, in assay [2] (1.0 µM compound), the “MDR Ratio 1.0 µM” value is reported as greater than 9.2.

For the origin of these results see patent EP0797567B1, “NOVEL AMINO ACID DERIVATIVES WITH IMPROVED MULTI-DRUG RESISTANCE ACTIVITY” (Vertex Pharmaceuticals Incorporated, priority 1994, dated 1996).
